{"source": "patent US20110166226A1", "about": "“PROCESS FOR OBTAINING AN EXTRACT RICH IN ROSMARINIC ACID (RA) FROM THE PLANT ORIGANUM VULGARE AND ITS USE FOR THE TREATMENT OF DIABETES” (ACEF S/A, priority 2008, published 2011)", "format_in_all_cases": "in vivo, rat", "key": {"[1]": {"system": "diabetic rats induced by alloxan", "test": "Hypoglycemiant activity in diabetic rats induced by alloxan, 15 days oral treatment then follow-up without treatment", "details": "for plasmatic levels of glycemia: mean ± EPM", "description": "The induction of diabetes in animals was done by using alloxan. The animals stayed in fasting for 24 hours before receiving injections of alloxan, so that the animals became more susceptive to diabetes. After a pilot study, the dose of alloxan that was used was 40 mg/kg injected via intravenous in caudal vein. Alloxan was diluted in sodium citrate 0.05M pH 4.5 and the injected volume was 500. During the four hours after the injection, the animals received glucose solution 5% via oral (ad libidum) in order to prevent from seizures and death, what is common in hypoglycemia. On the first two days after diabetes induction, the animals received an insulin injection (100 μl—diluted 1/10) at every 24 hs via subcutaneous (FIG. 3). This procedure guarantees animals to survive during the disease acute phase enabling the study. […] To use in the animals, it was employed corresponding doses, considering animals body mass, which is about 250 mg/kg of hydroalcoholic extract, 55 mL of infusion/rat and 25 mg/kg of RA. The animals received treatment via oral (v.o.), being maintained during a period of 40 days. The first 15 days evaluated by receiving treatment and the subsequent days with no treatment, so that it was possible to evaluate the potential to maintain the glycemic level. The obtained results are represented in the charts from FIGS. 4 to 7. As it can be observed in FIG. 4, the glycemic levels were monitored during 15 alternate days. After 15 days, the treatment was suspended (ST) and it was evaluated during 5, 10, 15 and 40 days. The data represent the mean±EPM, P<0.0001, when compared to the answer obtained for the groups DTE versus CD and CD versus CN (Anova followed by the Turkey-Kramer test). In FIG. 5, glycemic levels were monitored during 15 alternate days. After 15 days, the treatment was suspended (ST) and it was evaluated during 5, 10, 15 and 40 days. The data represent the mean±EPM, P<0.0001, when compared to the answer obtained for the groups DTAR versus CD and CD versus CN (Anova followed by the Turkey-Kramer test). In FIG. 6, glycemic levels were monitored during 15 alternate days. After 15 days, the treatment was suspended (ST) and it was evaluated during 5, 10, 15 and 40 days. The data represent the mean±EPM, P<0.0001, when compared to the answer obtained for the groups DTC versus CD and CD versus CN (Anova followed by the Turkey-Kramer test). In FIG. 7, glycemic levels were monitored during 15 alternate days. After 15 days, the treatment was suspended (ST) and it was evaluated during 5, 10, 15 and 40 days. The data represent the mean±EPM, P<0.0001, when compared to the answer obtained for the groups treated versus CD. (Anova followed by the Turkey-Kramer test)."}, "[2]": {"system": "diabetic rats induced by alloxan", "test": "Glycemia monitored for 4 h (60, 120 and 240 minutes) in diabetic rats, chlorpropamide as positive control (FIG. 8)", "details": "25 mg/kg v.o., chlorpropamide 40 mg/kg as positive control (FIG. 8)", "description": "FIG. 8—Graphic of the variation in plasmatic levels of glycemia (mg/dL), observed in the different experimental groups: Diabetic treated with hydroalcoholic extract (DTE, 250 mg/kg, v.o.), Diabetic treated with Rosmarinic Acid (DTRA, 25 mg/kg, v.o.), Diabetic treated with drugs in the market (Clorpropamida, 40 mg/kg), Diabetic Control (DC) and Normoglycemic Control (NC).\nThe induction of diabetes in animals was done by using alloxan. The animals stayed in fasting for 24 hours before receiving injections of alloxan, so that the animals became more susceptive to diabetes. After a pilot study, the dose of alloxan that was used was 40 mg/kg injected via intravenous in caudal vein. Alloxan was diluted in sodium citrate 0.05M pH 4.5 and the injected volume was 500. During the four hours after the injection, the animals received glucose solution 5% via oral (ad libidum) in order to prevent from seizures and death, what is common in hypoglycemia. On the first two days after diabetes induction, the animals received an insulin injection (100 μl—diluted 1/10) at every 24 hs via subcutaneous (FIG. 3). This procedure guarantees animals to survive during the disease acute phase enabling the study.\nIn FIG. 8, glycemic levels were monitored after 60, 120 and 240 minutes. […]"}, "normal rats": {"system": "normal rats", "test": "Glycemic level in normal rats"}}}
{"smiles": "O=C(/C=C/c1ccc(O)c(O)c1)O[C@H](Cc1ccc(O)c(O)c1)C(=O)O", "note": "[RA, rosmarinic acid]", "values": [{"measurement": "maintenance of the reduced glycemic level (result in words)", "setting": "[1]; 25 mg/kg v.o., 15 days treatment, followed to 40 days without treatment (FIG. 5)", "value": "in addition of reducing, it kept the glycemic level to the end of the experience"}, {"measurement": "plasmatic levels of glycemia", "setting": "[1]; 5 ST: 5 days with no treatment after the 15 days of treatment", "value": "112.5 ± 5.00", "unit": "mg/dL"}, {"measurement": "plasmatic levels of glycemia", "setting": "[1]; 10 ST: 10 days with no treatment after the 15 days of treatment", "value": "101.5 ± 19.13", "unit": "mg/dL"}, {"measurement": "plasmatic levels of glycemia", "setting": "[1]; 15 ST: 15 days with no treatment after the 15 days of treatment", "value": "103.5 ± 10.78", "unit": "mg/dL"}, {"measurement": "plasmatic levels of glycemia", "setting": "[1]; 40 ST: 40 days with no treatment after the 15 days of treatment", "value": "109.3 ± 9.87", "unit": "mg/dL"}, {"measurement": "effect on level of plasmatic glycemic in diabetic rats (result in words)", "setting": "[1]; diabetic rats", "value": "reducing the level of plasmatic glycemic in diabetic rats"}, {"measurement": "plasmatic levels of glycemia", "setting": "[1]; evaluated day 0, v.o.: infusion 55 mL/rat, extract 250 mg/kg, RA 25 mg/kg", "value": "362.6 ± 101.52", "unit": "mg/dL"}, {"measurement": "plasmatic levels of glycemia", "setting": "[1]; evaluated day 1 of treatment, v.o.: infusion 55 mL/rat, extract 250 mg/kg, RA 25 mg/kg", "value": "136.6 ± 44.96", "unit": "mg/dL"}, {"measurement": "plasmatic levels of glycemia", "setting": "[1]; evaluated day 3 of treatment, v.o.: infusion 55 mL/rat, extract 250 mg/kg, RA 25 mg/kg", "value": "114.0 ± 8.46", "unit": "mg/dL"}, {"measurement": "plasmatic levels of glycemia", "setting": "[1]; evaluated day 5 of treatment, v.o.: infusion 55 mL/rat, extract 250 mg/kg, RA 25 mg/kg", "value": "71.5 ± 22.66", "unit": "mg/dL"}, {"measurement": "plasmatic levels of glycemia", "setting": "[1]; evaluated day 7 of treatment, v.o.: infusion 55 mL/rat, extract 250 mg/kg, RA 25 mg/kg", "value": "124.5 ± 27.75", "unit": "mg/dL"}, {"measurement": "plasmatic levels of glycemia", "setting": "[1]; evaluated day 9 of treatment, v.o.: infusion 55 mL/rat, extract 250 mg/kg, RA 25 mg/kg", "value": "100.1 ± 12.31", "unit": "mg/dL"}, {"measurement": "plasmatic levels of glycemia", "setting": "[1]; evaluated day 11 of treatment, v.o.: infusion 55 mL/rat, extract 250 mg/kg, RA 25 mg/kg", "value": "108.0 ± 13.31", "unit": "mg/dL"}, {"measurement": "plasmatic levels of glycemia", "setting": "[1]; evaluated day 13 of treatment, v.o.: infusion 55 mL/rat, extract 250 mg/kg, RA 25 mg/kg", "value": "92.1 ± 16.89", "unit": "mg/dL"}, {"measurement": "plasmatic levels of glycemia", "setting": "[1]; evaluated day 15 of treatment, v.o.: infusion 55 mL/rat, extract 250 mg/kg, RA 25 mg/kg", "value": "102.0 ± 12.60", "unit": "mg/dL"}, {"measurement": "effectiveness on glycemia monitored for 4 h (result in words)", "setting": "[2]", "value": "it was verified the effectiveness"}, {"measurement": "effect on glycemic level in normal rats (result in words)", "setting": "normal rats", "value": "not reducing the glycemic level in normal rats"}]}
